Test results from ChEMBL document CHEMBL3526069, “Human pharmacokinetic prediction of UDP-glucuronosyltransferase substrates with an animal scale-up approach” (Drug Metab Dispos, 2011).

Columns and labels:
[1] = Drug metabolism in bile duct-cannulated dog assessed as glucuronide concentration in bile and urine at 0.2 mg/kg, iv up to 24 hrs by LC/MS/MS analysis; format: ADME, organism-based, Canis lupus familiaris; parameters: dose 0.2 mg/kg, route intravenous; conditions: in vivo
[2] = Drug metabolism in gallbladder-cannulated mouse assessed as glucuronide concentration in bile and urine at 0.2 mg/kg, iv up to 24 hrs by LC/MS/MS analysis; format: ADME, organism-based; parameters: dose 0.2 mg/kg, route intravenous; conditions: in vivo
[3] = in vitro; conditions: rat, plasma
Description: Fraction unbound in rat plasma by ultracentrifugation method

[4] = Drug metabolism in bile duct-cannulated rat assessed as glucuronide concentration in bile and urine at 0.2 mg/kg, iv up to 24 hrs by LC/MS/MS analysis; format: ADME, organism-based; parameters: dose 0.2 mg/kg, route intravenous; conditions: in vivo
[5] = clinical; conditions: human, in vivo
[6] = in vitro; conditions: human
Description: Ratio of drug level in blood to plasma in human

[7] = in vitro; conditions: rat
Description: Ratio of drug level in blood to plasma in rat

[8] = Drug metabolism in bile duct-cannulated cynomolgus monkey assessed as glucuronide concentration in bile and urine at 0.2 mg/kg, iv up to 24 hrs by LC/MS/MS analysis; conditions: in vivo
[9] = in vitro; conditions: mouse, plasma
Description: Fraction unbound in mouse plasma by ultracentrifugation method

[10] = Plasma clearance in po dosed human
[11] = in vitro; conditions: rhesus monkey, plasma
Description: Fraction unbound in monkey plasma by ultracentrifugation method

[12] = in vitro; conditions: dog, plasma
Description: Fraction unbound in dog plasma by ultracentrifugation method

[13] = in vitro; conditions: dog
Description: Ratio of drug level in blood to plasma in dog

[14] = in vitro; conditions: human, plasma
Description: Fraction unbound in human plasma by ultracentrifugation method

[15] = in vitro; conditions: mouse
Description: Ratio of drug level in blood to plasma in mouse

[16] = in vitro; conditions: rhesus monkey
Description: Ratio of drug level in blood to plasma in monkey

[17] = clinical; conditions: human, in vivo; remark: listed apart in the source
Description: Volume of distribution at steady state in human

[18] = Drug metabolism in human assessed as glucuronide concentration in urine
[19] = Plasma clearance in human; conditions: in vivo

Structure (SMILES)	Fm [1]	Fm [2]	fraction unbound [3]	Fm [4]	half-life [5]	blood plasma ratio [6]	blood plasma ratio [7]	Fm [8]	fraction unbound [9]	CL/F ([10]; plasma)	fraction unbound [11]	fraction unbound [12]	blood plasma ratio [13]	fraction unbound [14]	blood plasma ratio [15]	blood plasma ratio [16]	Vd [17]	Fm [18]	CL/F ([10]; in vivo)	clearance [19]
CC(C(=O)O)c1cccc(C(=O)c2ccccc2)c1 (stereo not given) [KETOPROFEN]	0.163	0.01	–	–	–	–	–	–	–	–	–	–	–	–	–	–	–	–	–	–
CCCc1nc2c(C)cc(-c3nc4ccccc4n3C)cc2n1Cc1ccc(-c2ccccc2C(=O)O)cc1	0.99	0.118	0.007	0.396	7.29 h	1.24	1.25	0.47	0.071	1.07 L/h/kg	0.008	0.018	1.18	0.003	0.54	1.16	–	–	–	–
CN(C)CCCN1c2ccccc2CCc2ccccc21.Cl [IMIPRAMINE HYDROCHLORIDE]	0.005	–	–	0.014	10.7 h	–	–	0.04	0.063	–	0.03	–	–	0.104	–	–	12 L/kg	0.1	–	–
NS(=O)(=O)c1cc(C(=O)O)c(NCc2ccco2)cc1Cl [FUROSEMIDE]	0.17	0.005	–	0.052	–	–	–	0.671	–	–	–	–	–	–	–	–	–	0.14	–	–
O=C([O-])Cc1ccccc1Nc1c(Cl)cccc1Cl.[Na+] [DICLOFENAC SODIUM]	0.522	0.261	0.006	0.065	0.726 h	0.71	1.57	0.29	0.005	–	0.005	0.003	1.01	0.003	0.67	1.01	0.22 L/kg	0.15	0.389 L/h/kg	0.21 L/h/kg
Cc1ccc(C)c(OCCCC(C)(C)C(=O)O)c1 [GEMFIBROZIL]	0.69	0.173	0.01	0.366	7.6 h	0.75	0.83	0.35	0.041	–	0.007	0.004	0.64	0.005	0.68	0.67	1.11 L/kg	0.4	0.104 L/h/kg	0.102 L/h/kg
